Source: PubChem BioAssay AID2060899 (Molecular Pharmacology Branch, DTP, NCI, 2025)

Test system: 565726-208-R1-J5-PDC complex spheroids, growth inhibition
Assay: Anticancer human tumor 565726-208-R1-J5-PDC patient-derived pancreatic adenocarcinoma cell line growth inhibition [RAS]
Details: for IC50: curve of first compound; for viability, T/C: stronger effect = lower value
Method in brief: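 Agents were tested in combination matrices in half-log decrements from a top concentration at or near clinical Cmax (10 microM if undetermined). Targets were multi-cell spheroids of tumour lines plus HUVEC and MSC stromal cells.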

[1] = second compound 0.000949 µM, first compound 0.0316 µM
[2] = second compound 0.000949 µM, first compound 0.1 µM
[3] = second compound 0.000949 µM, first compound 0.316 µM
[4] = second compound 0.000949 µM, first compound 1 µM
[5] = second compound 0.000949 µM, first compound 3.16 µM
[6] = second compound 0.000949 µM, first compound 10 µM
[7] = second compound 0.003 µM, first compound 0.0316 µM
[8] = second compound 0.003 µM, first compound 0.1 µM
[9] = second compound 0.003 µM, first compound 0.316 µM
[10] = second compound 0.003 µM, first compound 1 µM
[11] = second compound 0.003 µM, first compound 3.16 µM
[12] = second compound 0.003 µM, first compound 10 µM
[13] = second compound 0.00949 µM, first compound 0.0316 µM
[14] = second compound 0.00949 µM, first compound 0.1 µM
[15] = second compound 0.00949 µM, first compound 0.316 µM
[16] = second compound 0.00949 µM, first compound 1 µM
[17] = second compound 0.00949 µM, first compound 3.16 µM
[18] = second compound 0.00949 µM, first compound 10 µM
[19] = second compound 0.03 µM, first compound 0.0316 µM
[20] = second compound 0.03 µM, first compound 0.1 µM
[21] = second compound 0.03 µM, first compound 0.316 µM
[22] = second compound 0.03 µM, first compound 1 µM
[23] = second compound 0.03 µM, first compound 3.16 µM
[24] = second compound 0.03 µM, first compound 10 µM
[25] = second compound 0.0949 µM, first compound 0.0316 µM
[26] = second compound 0.0949 µM, first compound 0.1 µM
[27] = second compound 0.0949 µM, first compound 0.316 µM
[28] = second compound 0.0949 µM, first compound 1 µM
[29] = second compound 0.0949 µM, first compound 3.16 µM
[30] = second compound 0.0949 µM, first compound 10 µM
[31] = second compound 0.3 µM, first compound 0.0316 µM
[32] = second compound 0.3 µM, first compound 0.1 µM
[33] = second compound 0.3 µM, first compound 0.316 µM
[34] = second compound 0.3 µM, first compound 1 µM
[35] = second compound 0.3 µM, first compound 3.16 µM
[36] = second compound 0.3 µM, first compound 10 µM
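Note: spheroids exposed to compounds for seven days before readout.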
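Throughout, for viability, T/C: 100% = DMSO vehicle control viability.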

With `CC(=O)OC12COC1CC(O)C1(C)C(=O)C(O)C3=C(C)C(OC(=O)C(O)C(NC(=O)OC(C)(C)C)c4ccccc4)CC(O)(C(OC(=O)c4ccccc4)C21)C3(C)C` (stereo unspecified) + CCn1c(-c2cccnc2C(C)OC)c2c3cc(ccc31)N1CCOC(CC(NC(=O)C(C(C)C)N(C)C(=O)C3(F)CCN(C(=O)C#CC(C)(C)N(C)C)CC3)C(=O)N3CCCC(N3)C(=O)OCC(C)(C)C2)C1 the IC50 (second compound 0.000949 µM) was < 31.6 nM, the IC50 (second compound 0.003 µM) was < 31.6 nM and the IC50 (second compound 0.00949 µM) was < 31.6 nM. The IC50 (second compound 0.03 µM) was < 31.6 nM, the IC50 (second compound 0.0949 µM) was < 31.6 nM and the IC50 (second compound 0.3 µM) was < 31.6 nM. The viability, T/C [1] was 15.9%, the viability, T/C [2] was 14.2% and the viability, T/C [3] was 15.5%. For the same compound, the viability, T/C [4] was 16.5%, the viability, T/C [5] was 19.8% and the viability, T/C [6] was 21.5%. For the same compound, the viability, T/C [7] was 17.4%, the viability, T/C [8] was 16.5% and the viability, T/C [9] was 16.2%. For the same compound, the viability, T/C [10] was 14.6%, the viability, T/C [11] was 19.8% and the viability, T/C [12] was 22.8%. It also gave a viability, T/C [13] of 17.3%, a viability, T/C [14] of 15.3% and a viability, T/C [15] of 15.9%. It also gave a viability, T/C [16] of 15.7%, a viability, T/C [17] of 20.1% and a viability, T/C [18] of 22.8%. It also gave a viability, T/C [19] of 16.3%, a viability, T/C [20] of 16.2% and a viability, T/C [21] of 15%. For the same compound, the viability, T/C [22] was 17%, the viability, T/C [23] was 21.6% and the viability, T/C [24] was 25.4%. It also gave a viability, T/C [25] of 15.3%, a viability, T/C [26] of 14.8% and a viability, T/C [27] of 13.2%. For the same compound, the viability, T/C [28] was 15.3%, the viability, T/C [29] was 20.2% and the viability, T/C [30] was 24.3%. For the same compound, the viability, T/C [31] was 14.9%, the viability, T/C [32] was 15.8% and the viability, T/C [33] was 14.4%. It also gave a viability, T/C [34] of 13.9%, a viability, T/C [35] of 17.6% and a viability, T/C [36] of 26.2%.
Work on `CCC(CC)c1cc(NC2CCC(N)C2)n2nccc2n1` (stereo unspecified) + CCn1c(-c2cccnc2C(C)OC)c2c3cc(ccc31)N1CCOC(CC(NC(=O)C(C(C)C)N(C)C(=O)C3(F)CCN(C(=O)C#CC(C)(C)N(C)C)CC3)C(=O)N3CCCC(N3)C(=O)OCC(C)(C)C2)C1 yielded an IC50 (second compound 0.000949 µM) of 1430 nM, an IC50 (second compound 0.003 µM) of 1490 nM and an IC50 (second compound 0.00949 µM) of 1480 nM. For the same compound, the IC50 (second compound 0.03 µM) was 1380 nM, the IC50 (second compound 0.0949 µM) was 1340 nM and the IC50 (second compound 0.3 µM) was 1040 nM. The viability, T/C [1] was 106%, the viability, T/C [2] was 103% and the viability, T/C [3] was 101%. The viability, T/C [4] was 72%, the viability, T/C [5] was 0.76% and the viability, T/C [6] was 0.94%. For the same compound, the viability, T/C [7] was 104%, the viability, T/C [8] was 104% and the viability, T/C [9] was 115%. For the same compound, the viability, T/C [10] was 76.4%, the viability, T/C [11] was 0.77% and the viability, T/C [12] was 0.9%. The viability, T/C [13] was 112%, the viability, T/C [14] was 105% and the viability, T/C [15] was 101%. It also gave a viability, T/C [16] of 74.9%, a viability, T/C [17] of 0.96% and a viability, T/C [18] of 0.75%. For the same compound, the viability, T/C [19] was 108%, the viability, T/C [20] was 109% and the viability, T/C [21] was 115%. It also gave a viability, T/C [22] of 68.9%, a viability, T/C [23] of 0.82% and a viability, T/C [24] of 1.41%. For the same compound, the viability, T/C [25] was 92.9%, the viability, T/C [26] was 109% and the viability, T/C [27] was 94.7%. For the same compound, the viability, T/C [28] was 66.9%, the viability, T/C [29] was 0.68% and the viability, T/C [30] was 0.5%. For the same compound, the viability, T/C [31] was 78.5%, the viability, T/C [32] was 88.7% and the viability, T/C [33] was 96.4%. The viability, T/C [34] was 51.9%, the viability, T/C [35] was 0.87% and the viability, T/C [36] was 1.78%.
Work on `CC1(O)CCCC1n1c(=O)c(C(F)F)cc2cnc(NC3CCN(S(C)(=O)=O)CC3)nc21` (stereo unspecified) + C#Cc1c(F)ccc2cc(O)cc(-c3ncc4c(N5CC6CCC(C5)N6)nc(OCC56CCCN5CC(F)C6)nc4c3F)c12 yielded an IC50 (second compound 0.0316 µM) of 3320 nM, an IC50 (second compound 0.1 µM) of 3290 nM and an IC50 (second compound 0.316 µM) of 3900 nM. It also gave an IC50 (second compound 1 µM) of 1540 nM, an IC50 (second compound 3.16 µM) of 1140 nM and an IC50 (second compound 10 µM) of 606 nM. The viability, T/C (second compound 0.0316 µM, first compound 0.0316 µM) was 82.3%, the viability, T/C (second compound 0.0316 µM, first compound 0.1 µM) was 87.4% and the viability, T/C (second compound 0.0316 µM, first compound 0.316 µM) was 76.7%. For the same compound, the viability, T/C (second compound 0.0316 µM, first compound 1 µM) was 56.2%, the viability, T/C (second compound 0.0316 µM, first compound 3.16 µM) was 62.2% and the viability, T/C (second compound 0.0316 µM, first compound 10 µM) was 5.34%. The viability, T/C (second compound 0.1 µM, first compound 0.0316 µM) was 93.8%, the viability, T/C (second compound 0.1 µM, first compound 0.1 µM) was 103% and the viability, T/C (second compound 0.1 µM, first compound 0.316 µM) was 69.9%. The viability, T/C (second compound 0.1 µM, first compound 1 µM) was 65.9%, the viability, T/C (second compound 0.1 µM, first compound 3.16 µM) was 63.7% and the viability, T/C (second compound 0.1 µM, first compound 10 µM) was 4.76%. The viability, T/C (second compound 0.316 µM, first compound 0.0316 µM) was 91.6%, the viability, T/C (second compound 0.316 µM, first compound 0.1 µM) was 95% and the viability, T/C (second compound 0.316 µM, first compound 0.316 µM) was 75.6%. The viability, T/C (second compound 0.316 µM, first compound 1 µM) was 66.2%, the viability, T/C (second compound 0.316 µM, first compound 3.16 µM) was 69% and the viability, T/C (second compound 0.316 µM, first compound 10 µM) was 5.83%. It also gave a viability, T/C (second compound 1 µM, first compound 0.0316 µM) of 96%, a viability, T/C (second compound 1 µM, first compound 0.1 µM) of 93.9% and a viability, T/C (second compound 1 µM, first compound 0.316 µM) of 59.7%. The viability, T/C (second compound 1 µM, first compound 1 µM) was 55%, the viability, T/C (second compound 1 µM, first compound 3.16 µM) was 50.9% and the viability, T/C (second compound 1 µM, first compound 10 µM) was 5.01%. It also gave a viability, T/C (second compound 3.16 µM, first compound 0.0316 µM) of 88.4%, a viability, T/C (second compound 3.16 µM, first compound 0.1 µM) of 81.7% and a viability, T/C (second compound 3.16 µM, first compound 0.316 µM) of 55.6%. The viability, T/C (second compound 3.16 µM, first compound 1 µM) was 50%, the viability, T/C (second compound 3.16 µM, first compound 3.16 µM) was 46.4% and the viability, T/C (second compound 3.16 µM, first compound 10 µM) was 2.99%. It also gave a viability, T/C (second compound 10 µM, first compound 0.0316 µM) of 78.8%, a viability, T/C (second compound 10 µM, first compound 0.1 µM) of 67.1% and a viability, T/C (second compound 10 µM, first compound 0.316 µM) of 53.1%. It also gave a viability, T/C (second compound 10 µM, first compound 1 µM) of 43.9%, a viability, T/C (second compound 10 µM, first compound 3.16 µM) of 32.4% and a viability, T/C (second compound 10 µM, first compound 10 µM) of 0.3%.
